# Measurements from paper PMC10406726, “Development, scrutiny, and modulation of transient reporter gene assays of the xenobiotic metabolism pathway in zebrafish hepatocytes” (Cell Biology and Toxicology, 2021).
# Where two headings read alike, the source gives them in different places.
# Tests used:
# [1] = test system: NR1I2 (nuclear receptor subfamily 1, group I, member 2); design: method as in ToxCast database, CompTox dashboard; conditions: ATG_PXRE_CIS_up; ref ToxCast database, CompTox dashboard; cited from earlier work
# ARE (channel 1) = test system: ARE (channel 1); design: method as in ToxCast database, CompTox dashboard; conditions: TOX21_ARE_BLA_Agonist_ch1; ref ToxCast database, CompTox dashboard; cited from earlier work
# [2] = test system: NR1I3 (nuclear receptor subfamily 1, group I, member 3); design: method as in ToxCast database, CompTox dashboard; conditions: TOX21_CAR_Agonist; ref ToxCast database, CompTox dashboard; cited from earlier work
# [3] = Optical inspection under the microscope for crystalized aggregates in exposure medium; type: physicochemical; conditions: BNF in exposure medium, ZFL cell culture
# Excerpt: TOX21_ARE_BLA_agonist_ratio NFE2L2 nuclear factor, 0.985 DNA binding
# ATG_ERE_CIS_up ESR1 estrogen receptor 1 1.06 nuclear receptor
# TOX21_ARE_BLA_Agonist_ch2 – – 1.22 channel 2
# ATG_PXRE_CIS_up NR1I2 nuclear receptor 2.24 nuclear receptor
# ATG_ERa_TRANS_up ESR1 estrogen receptor 1 2.86 nuclear receptor
# TOX21_AR_LUC_MDAKB2_Ago AR androgen receptor 3.69 nuclear receptor
# ATG_VDRE_CIS_up VDR vitamin D (1,25- 4.28 nuclear receptor
# TOX21_AhR_LUC_Agonist AHR aryl hydrocarbon 4.44 DNA binding
# TOX21_ERa_LUC_VM7_Agonist ESR1 estrogen receptor 1 5.15 nuclear receptor
# TOX21_AR_LUC_MDAKB2_Ago AR androgen receptor 5.43 nuclear receptor
# TOX21_CAR_Agonist NR1I3 nuclear receptor 6.07 nuclear receptor
# ATG_PXR_TRANS_up NR1I2 nuclear receptor 6.58 nuclear receptor
# 132 To undermine the “maisonette” squelching hypothesis, Comptox data regarding the induction of cellular
# 133 stress response pathways were backed up by empirical data in ZFL cell lines. Therefore, ZFL cells were
# 134 transiently co-transfected with the Nrf2-responsive reporter vector pGL4.37 and the normalization
# 135 vector pRL-CMV, as described in (Lungu-Mitea and Lundqvist 2020). Experimental design, data
# 136 handling, and statistical evaluation were identical to procedures described in the main manuscript. The
# 137 transcription factor Nrf2 is a central regulator of the oxidative stress response pathways […]
# [4] = test system: FOS (FBJ murine osteosarcoma viral oncogene homolog); design: method as in ToxCast database, CompTox dashboard; conditions: ATG_AP_1_CIS_up; ref ToxCast database, CompTox dashboard; cited from earlier work
# [5] = biological target: ESR1 (estrogen receptor 1); design: method as in ToxCast database, CompTox dashboard; conditions: ATG_ERa_TRANS_up; ref ToxCast database, CompTox dashboard; cited from earlier work
# [6] = biological target: VDR (vitamin D (1,25-dihydroxyvitamin D3) receptor); design: method as in ToxCast database, CompTox dashboard; conditions: ATG_VDRE_CIS_up; ref ToxCast database, CompTox dashboard; cited from earlier work
# HDAC (hydrolase) = biological target: HDAC (hydrolase); design: method as in ToxCast database, CompTox dashboard; conditions: TOX21_HDAC_Inhibition; ref ToxCast database, CompTox dashboard; cited from earlier work
# AR (androgen receptor) [7] = biological target: AR (androgen receptor); design: method as in ToxCast database, CompTox dashboard; conditions: TOX21_AR_LUC_MDAKB2_Agonist; ref ToxCast database, CompTox dashboard; cited from earlier work
# [8] = test system: AHR (aryl hydrocarbon receptor); design: method as in ToxCast database, CompTox dashboard; conditions: TOX21_AhR_LUC_Agonist; ref ToxCast database, CompTox dashboard; cited from earlier work
# [9] = test system: NFE2L2 (nuclear factor, erythroid 2-like 2); design: method as in ToxCast database, CompTox dashboard; conditions: TOX21_ARE_BLA_agonist_ratio; ref ToxCast database, CompTox dashboard; cited from earlier work
# ARE (channel 2) = test system: ARE (channel 2); design: method as in ToxCast database, CompTox dashboard; conditions: TOX21_ARE_BLA_Agonist_ch2; ref ToxCast database, CompTox dashboard; cited from earlier work
# [10] = test system: PPARG (peroxisome proliferator-activated receptor gamma); design: method as in ToxCast database, CompTox dashboard; conditions: ATG_PPARg_TRANS_up; ref ToxCast database, CompTox dashboard; cited from earlier work
# AR (androgen receptor) [11] = biological target: AR (androgen receptor); design: method as in ToxCast database, CompTox dashboard; conditions: TOX21_AR_LUC_MDAKB2_Agonist_3uM_Nilutamide; ref ToxCast database, CompTox dashboard; cited from earlier work
# [12] = biological target: ESRRA (estrogen-related receptor alpha); design: method as in ToxCast database, CompTox dashboard; conditions: TOX21_PGC_ERR_Agonist; ref ToxCast database, CompTox dashboard; cited from earlier work
# [13] = test system: NR1I2 (nuclear receptor subfamily 1, group I, member 2); design: method as in ToxCast database, CompTox dashboard; conditions: ATG_PXR_TRANS_up; ref ToxCast database, CompTox dashboard; cited from earlier work
# HEK293 (cell cycle) = test system: HEK293 (cell cycle); design: method as in ToxCast database, CompTox dashboard; conditions: TOX21_RT_HEK293_FLO_40hr_viability; ref ToxCast database, CompTox dashboard; cited from earlier work
smiles,measurement,setting,value
"O=c1cc(-c2ccccc2)oc2ccc3ccccc3c12 [BNF, β-naphthoflavone]",AC50,[1],2240 nM
same,AC50,ARE (channel 1),837 nM
same,AC50,[2],6070 nM
same,AC50,[4],156 nM
same,AC50,[5],2860 nM
same,AC50,[6],4280 nM
same,AC50,HDAC (hydrolase),513 nM
same,AC50,AR (androgen receptor) [7],5430 nM
same,AC50,[9],985 nM
same,AC50,ARE (channel 2),1220 nM
same,AC50,[10],750 nM
same,AC50,AR (androgen receptor) [11],3690 nM
same,AC50,[12],189 nM
same,AC50,[13],6580 nM
same,AC50,HEK293 (cell cycle),5050 nM
